Patent US9315494B2, “Alkyl-amide-substituted pyridyl compounds useful as modulators of IL-12, IL-23 and/or IFNα responses” (Bristol-Myers Squibb Company, priority 2012, dated 2016)
Read-outs that look alike come from different tables or passages of the source.

Assays:
[1] = test system: IL-23-stimulated STAT-dependent luciferase reporter in Kit225 T cells; assay: Kit225 T cell assay, IL-23 stimulated STAT-dependent luciferase reporter; format: cell-based, human
Protocol: (§1) Kit225 T cells with a stably-integrated STAT-dependent luciferase reporter were plated in RPMI (Gibco) containing 10% heat-inactivated FBS (Gibco) and 100 U/mL PenStrep (Gibco). The cells were then stimulated with either 20 ng/mL human recombinant IL-23 or 200 U/mL human recombinant IFNα (PBL InterferonSource) for 5-6 hours. Luciferase expression was measured using the STEADY-GLO® Luciferase Assay System (Promega) according to the manufacturer's instructions.

[2] = test system: IFNα-stimulated STAT-dependent luciferase reporter in Kit225 T cells; assay: Kit225 T cell assay, IFNα stimulated STAT-dependent luciferase reporter; format: cell-based, human
Protocol: as §1

[3] = Kit225 T cells, 20 ng/mL human recombinant IL-23, 5-6 hours, luciferase, read-out: IL23 (Kit225 T Cell Inhibition Data)
[4] = Kit225 T cells, 200 U/mL human recombinant IFNα, 5-6 hours, luciferase, read-out: IFNα (Kit225 T Cell Inhibition Data)

IC50 [1, 3] [nM] | IC50 [2, 4] [nM] | SMILES | IC50 ([1]; Homo sapiens, KIT225, read-out: IL23 (Kit225 T Cell Inhibition Data)) [nM] | IC50 ([2]; Homo sapiens, KIT225, read-out: IFNα (Kit225 T Cell Inhibition Data)) [nM]
336 | 190 | CNC(=O)c1cnc(Nc2cc(C(=O)N(C)C)ccn2)cc1Nc1cc(F)cc(F)c1OC [Example 274] | – | –
2200 | 860 | CNC(=O)c1cnc(Nc2ccc(F)cn2)cc1Nc1ccc(F)cc1OC [Example 119] | – | –
511 | – | CNC(=O)c1cnc(Nc2cc(S(C)(=O)=O)ccn2)cc1Nc1cccc(F)c1OC [Example 282] | – | –
1560 | 710 | CNC(=O)c1cnc(Nc2ccc(C(N)=O)cn2)cc1Nc1ccc(Cl)cc1OC [Example 255] | – | –
6170 | – | CNC(=O)c1cnc(Nc2ccc(C(F)(F)F)cn2)cc1Nc1ccccc1C(C)(C)O [Example 181] | – | –
20 | 20 | CNC(=O)c1cnc(Nc2cc(C)c(F)cn2)cc1Nc1cccc(C(=O)NCCOC)c1OC [Example 352] | – | –
8.36 | 6.98 | CNC(=O)c1cnc(Nc2ccccn2)cc1Nc1cccc(-c2ncn(C)n2)c1OC [Example 374] | – | –
90 | 110 | CNC(=O)c1cnc(Nc2ccccn2)cc1Nc1ccccc1NS(C)(=O)=O [Example 428] | – | –
157 | 90 | CNC(=O)c1cnc(Nc2ccc(N3CCOCC3)cn2)cc1Nc1cccc2c1OCCO2 [Example 225] | – | –
751 | 300 | CNC(=O)c1cnc(Nc2cc(C)ccn2)cc1Nc1ccc(F)cc1OC [Example 148] | – | –
5720 | 6940 | CNC(=O)c1cnc(Nc2ncccc2C)cc1Nc1ccccc1C(N)=O [Example 83] | – | –
374 | 960 | CNC(=O)c1cnc(Nc2cc(C(=O)NCC#N)ccn2)cc1Nc1cccc(F)c1OC [Example 278] | – | –
– | – | CNC(=O)c1cnc(Nc2ccc(F)cn2)cc1Nc1ccccc1 [Example 184] | 7980 | 4110
7300 | 3290 | CCNC(=O)c1cnc(Nc2ccc(F)cn2)cc1Nc1ccccc1C(N)=O [Example 295] | – | –
1920 | 630 | CNC(=O)c1cnc(Nc2ccc(F)cn2)cc1Nc1ccc(C(=O)NC2CC2)cc1S(C)(=O)=O [Example 309] | – | –
852 | 470 | CNC(=O)c1cnc(Nc2ccc(N3CCCC3=O)cn2)cc1Nc1ccc(F)cc1OC [Example 127] | – | –
785 | 740 | CNC(=O)c1cnc(Nc2cc(C(=O)N3CCCC3)ccn2)cc1Nc1ccc(F)cc1OC [Example 268] | – | –
2190 | 750 | CNC(=O)c1cnc(Nc2cccc(-c3ccccc3)n2)cc1Nc1ccc(Cl)cc1OC [Example 116] | – | –
20 | 20 | CNC(=O)c1cnc(Nc2cc(C)nc(C)n2)cc1Nc1cccc(-c2ncn(CCF)n2)c1OC [Example 377] | – | –
187 | 120 | CNC(=O)c1cnc(Nc2cccc(C)n2)cc1Nc1cc(F)cc(F)c1OC [Example 132] | – | –
200 | 90 | CNC(=O)c1cnc(Nc2cc(C)ccn2)cc1Nc1ccc(F)cc1S(C)(=O)=O [Example 52] | – | –

IC50 [1, 3] [nM] | IC50 [2, 4] [nM] | SMILES | IC50 ([1]; Homo sapiens, KIT225, read-out: IL23 (Kit225 T Cell Inhibition Data)) [nM] | IC50 ([2]; Homo sapiens, KIT225, read-out: IFNα (Kit225 T Cell Inhibition Data)) [nM]
462 | 640 | CNC(=O)c1cnc(Nc2ccc(C#N)cn2)cc1Nc1ccc(F)cc1OC [Example 124] | – | –
250 | 180 | CCOc1ccc(Nc2cc(Nc3ccccc3S(C)(=O)=O)c(C(=O)NC)cn2)nn1 [Example 444] | – | –
1160 | 570 | CNC(=O)c1cnc(Nc2ccc(C#N)c(C)n2)cc1Nc1ccc(Cl)cc1OC [Example 118] | – | –
86.6 | 80 | CNC(=O)c1cnc(Nc2cc(C)ccn2)cc1Nc1cc(F)cc(F)c1OC [Example 129] | – | –
20 | 9.22 | CNC(=O)c1cnc(Nc2cc(C)nc(C)n2)cc1Nc1cccc(-c2nc(C)n(C)n2)c1OC [Example 366] | – | –
– | 440 | CNC(=O)c1cnc(Nc2ccc(F)cn2)cc1Nc1cc2ccccc2cc1C(N)=O [Example 253] | – | –
221 | 170 | CNC(=O)c1cnc(Nc2cc(C(=O)N3CCCC3)ccn2)cc1Nc1cc(F)cc(F)c1OC [Example 270] | – | –
2860 | 890 | CNC(=O)c1cnc(Nc2ccc(S(=O)(=O)N(C)C)cn2)cc1Nc1ccccc1C(N)=O [Example 88] | – | –
257 | 210 | CNC(=O)c1cnc(Nc2ccc(F)cn2)cc1Nc1ccc(F)c(F)c1OC [Example 96] | – | –
150 | 180 | CNC(=O)c1cnc(Nc2ccn(-c3ccc(Cl)cc3)n2)cc1Nc1ccccc1S(C)(=O)=O [Example 446] | – | –
218 | 120 | CNC(=O)c1cnc(Nc2ccccn2)cc1Nc1ccc(F)cc1S(C)(=O)=O [Example 10] | – | –
9720 | 5970 | CNC(=O)c1cnc(Nc2ccccn2)cc1Nc1ccccc1C(C)(C)O [Example 183] | – | –
114 | 160 | CNC(=O)c1cnc(Nc2cc(C#N)ccn2)cc1Nc1ccc(F)cc1S(C)(=O)=O [Example 34] | – | –
2930 | 2010 | CNC(=O)c1cnc(Nc2ccc(N3CCOCC3)cn2)cc1Nc1ccccc1F [Example 214] | – | –
70 | 30 | CNC(=O)c1cnc(Nc2cc(C)c(F)cn2)cc1Nc1cccc(C(=O)NCCN2CCOCC2)c1OC [Example 322] | – | –
98.5 | 70 | CNC(=O)c1cnc(Nc2ccc(F)cn2)cc1Nc1ccccc1S(C)(=O)=O [Example 1] | – | –
646 | 310 | CNC(=O)c1cnc(Nc2cc(C(=O)N(C)C)ccn2)cc1Nc1ccc(F)c(F)c1OC [Example 258] | – | –
502 | 240 | CNC(=O)c1cnc(Nc2ccccn2)cc1Nc1ccccc1C(N)=O [Example 68] | – | –
466 | – | CNC(=O)c1cnc(Nc2ccc(C(N)=O)cn2)cc1Nc1ccccc1C(N)=O [Example 93] | – | –
510 | 310 | CNC(=O)c1cnc(Nc2cc(-n3ccccc3=O)ccn2)cc1Nc1cc(F)cc(F)c1OC [Example 167] | – | –
670 | 380 | CNC(=O)c1cnc(Nc2cc(N(C)Cc3ccccc3)ncn2)cc1Nc1ccccc1S(C)(=O)=O [Example 425] | – | –

IC50 [1, 3] [nM] | IC50 [2, 4] [nM] | SMILES | IC50 ([1]; Homo sapiens, KIT225, read-out: IL23 (Kit225 T Cell Inhibition Data)) [nM] | IC50 ([2]; Homo sapiens, KIT225, read-out: IFNα (Kit225 T Cell Inhibition Data)) [nM]
1580 | 1310 | CNC(=O)c1cnc(Nc2ccc(F)cn2)cc1Nc1ccccc1OC(F)(F)F [Example 209] | – | –
270 | 200 | CNC(=O)c1cnc(Nc2cc(F)ccn2)cc1Nc1ccc(F)cc1S(C)(=O)=O [Example 51] | – | –
388 | 120 | CNC(=O)c1cnc(Nc2cc(C)ccn2)cc1Nc1ccccc1C(N)=O [Example 78] | – | –
250 | 260 | CNC(=O)c1cnc(Nc2ccc(C#N)c(C)n2)cc1Nc1ccccc1S(C)(=O)=O [Example 440] | – | –
140 | 150 | CNC(=O)c1cnc(Nc2cc(F)ccn2)cc1Nc1ccccc1NS(C)(=O)=O [Example 427] | – | –
108 | 80 | CNC(=O)c1cnc(Nc2cc(OC)ccn2)cc1Nc1ccccc1S(C)(=O)=O [Example 15] | – | –
1060 | 600 | CNC(=O)c1cnc(Nc2cc(C(=O)N(C)C)ccn2)cc1Nc1ccc(F)cc1OC [Example 272] | – | –
3150 | 1310 | CNC(=O)c1cnc(Nc2ccc3ccccc3n2)cc1NC1CCCC1C(N)=O (stereo not shown) [Example 288] | – | –
179 | 70 | CNC(=O)c1cnc(Nc2ccc(OC)cn2)cc1Nc1cc(F)cc(F)c1OC [Example 133] | – | –
480 | 440 | CCc1cc(C#N)ccc1Nc1cc(Nc2cc(C)nc(C)n2)ncc1C(=O)NC [Example 401] | – | –
190 | 80 | CNC(=O)c1cnc(Nc2cc(C)nc(C)n2)cc1Nc1cccnc1OC [Example 314] | – | –
175 | 90 | CNC(=O)c1cnc(Nc2ccc(F)cn2)cc1Nc1cccc(F)c1OC [Example 171] | – | –
574 | 760 | CNC(=O)c1cnc(Nc2cc(F)ccn2)cc1Nc1ccccc1C(N)=O [Example 71] | – | –
9180 | 3120 | CNC(=O)c1cnc(Nc2ccc(F)cn2)cc1Nc1ccccc1N [Example 231] | – | –
6.22 | 8.34 | CNC(=O)c1cnc(Nc2ccc(F)cn2)cc1Nc1cccc(-c2ncn(C)n2)c1OC [Example 373] | – | –
749 | 430 | CNC(=O)c1cnc(Nc2cc(S(=O)(=O)N(C)C)ccn2)cc1Nc1ccccc1S(C)(=O)=O [Example 19] | – | –
– | 9370 | CNC(=O)c1cnc(Nc2ccc(F)cn2)cc1Nc1ccc(F)cc1C [Example 189] | – | –
– | 6560 | CNC(=O)c1cnc(Nc2ccc(F)cn2)cc1Nc1cccc(OC)c1 [Example 202] | – | –
– | 9570 | CNC(=O)c1cnc(Nc2ccc(F)cn2)cc1Nc1ccccc1S(=O)(=O)C(F)(F)F [Example 28] | – | –
8850 | – | CNC(=O)c1cnc(Nc2cccnn2)cc1Nc1ccccc1C(C)(C)O [Example 182] | – | –
388 | – | CNC(=O)c1cnc(Nc2cc(C#N)ccn2)cc1Nc1cccc(C)c1C(N)=O [Example 177] | – | –

SMILES | IC50 [1, 3] [nM] | IC50 [2, 4] [nM] | IC50 ([1]; Homo sapiens, KIT225, read-out: IL23 (Kit225 T Cell Inhibition Data)) [nM] | IC50 ([2]; Homo sapiens, KIT225, read-out: IFNα (Kit225 T Cell Inhibition Data)) [nM]
CNC(=O)c1cnc(Nc2cccnn2)cc1Nc1ccccc1S(C)(=O)=O [Example 36] | 1310 | 700 | – | –
CNC(=O)c1cnc(Nc2ccccn2)cc1Nc1ccccc1S(=O)(=O)C(F)(F)F [Example 29] | 7110 | 7980 | – | –
CNC(=O)c1cnc(Nc2ccncn2)cc1Nc1ccccc1S(C)(=O)=O [Example 37] | 690 | 1150 | – | –
CNC(=O)c1cnc(Nc2cc(C#N)ccn2)cc1Nc1cccc(S(C)(=O)=O)c1F [Example 35] | 4430 | – | – | –
